Results taken from patent US20040102438A1, “Gaba-receptor modulators for the treatment of neurodegenerative diseases of the eye” (priority 2001, published 2004).

Tests used:
[1] = Properties of the active ingredients (solubility, lipophilicity); type: physicochemical
[2] = system: cultured cortical cells of the rat; assay: L-glutamate excitotoxicity in cultured cortical cells, cell death by LDH release (Tests 1 and 2); type: cell-based; conditions: active ingredient 500 nm plus 10 nm L-glutamate; after 10, 30 and 60 minutes compared with the control group (FIG. 1, FIG. 2)
Method: Dissociated cortical cells from 16-18 day old fetal rats were bred in 35 mm dishes. The nutrient medium contained during the first 7 days L-lutamine (4 mM), glucose (6 g/l), penicillin (100 U/ml), streptomycin (100 μg/ml) and 10% hormonally enriched medium, which [contained] transferrin (1 mg/ml), insulin (250 μg/ml), putrescine (600 μM), sodium selenite (0.3 μM), progesterone (0.2 μM) and estradio (0.1 μM). The dishes were stored in an atmosphere (5% CO2 and […]) heated to 37 degrees Celsius.
To form the control group (Series 1), half of the dishes were supplemented with the nutrient medium 10 nm L-glutamate and incubated under normotoxic conditions for 4 hours.
To determine the neuroprotective properties, the other half of the dishes were supplemented with the nutrient medium flunitrazepam 500 nm and 10 nm L-glutamate (Series 2) and likewise incubated under normotoxic conditions.
The number of surviving or devitalized cells was determined by determination of the amount of lactate-dehydrogenase (LDH) ejected into the cell medium. The LDH activity was determined photospectrometrically by measurement of the NADH metabolism at 340 nm. […]
In the diagrams of FIG. 1 and FIG. 2 the measured values were entered as follows: The measured value describes the number of dead cells after the test in relation to the total number of cells before the test in percent. […]

Row | Structure (SMILES) | water solubility [1] | number of dying cells [2]
1 | Cc1ncc2n1-c1ccc(Cl)cc1C(c1ccccc1F)=NC2 [Midazolam] | water-soluble | 
2 | COCc1c(C(=O)OC(C)C)ncc2[nH]c3ccc(OCc4ccccc4)cc3c12 [abecamil, abecarnil] |  | reduction in the number of dying cells
3 | CN1C(=O)CN=C(c2ccccc2F)c2cc([N+](=O)[O-])ccc21 [flunitrazepam] |  | reduction in the number of dying cells
